These results are taken from patent US12129237B2, “Substituted diaminocarboxamide and diaminocarbonitrile pyrimidines, compositions thereof, and methods of treatment therewith” (SIGNAL PHARMACEUTICALS, LLC, priority 2011, dated 2024).

The structures appear in SMILES notation.

The target of one experiment is T1, JNK1 (Homo sapiens, UniProt P45983).
T1 construct: purchased Carna Biosciences
T1 sequence (P45983 whole entry): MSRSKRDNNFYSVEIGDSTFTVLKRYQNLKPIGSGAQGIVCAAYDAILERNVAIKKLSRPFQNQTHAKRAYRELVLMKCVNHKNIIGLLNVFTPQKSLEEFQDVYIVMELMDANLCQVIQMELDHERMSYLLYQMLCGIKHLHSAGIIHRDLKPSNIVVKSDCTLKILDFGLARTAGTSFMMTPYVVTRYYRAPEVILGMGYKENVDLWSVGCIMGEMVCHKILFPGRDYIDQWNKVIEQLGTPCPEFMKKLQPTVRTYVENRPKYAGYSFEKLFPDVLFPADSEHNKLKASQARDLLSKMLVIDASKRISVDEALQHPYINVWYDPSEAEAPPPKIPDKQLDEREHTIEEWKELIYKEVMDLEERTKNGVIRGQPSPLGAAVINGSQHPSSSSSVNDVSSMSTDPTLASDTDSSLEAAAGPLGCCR
The experiment in a line: JNK1 biochemical assays (one or more of: time resolved fluorescence, Z'-LYTE Cascade, radioactive). The conditions noted are these: Table 2; JNK1 IC50 activity level; read-out: Act. Level.
Regarding `COc1cccc(Nc2ncc(C(N)=O)c(Nc3ccccc3)n2)c1` [Example B-25, 2-(3-methoxyphenylamino)-4-(phenylamino)pyrimidine-5-carboxamide], the IC50 is under 200 nM.

With `CCOc1cccc(Nc2ncc(C(N)=O)c(Nc3ccccc3)n2)c1` [Example B-26, 2-(3-ethoxyphenylamino)-4-(phenylamino)pyrimidine-5-carboxamide], the IC50 was under 200 nM.

On to `COc1cccc(CNc2ncc(C(N)=O)c(Nc3ccccc3)n2)c1OC` [Example B-55, 2-(2,3-dimethoxybenzylamino)-4-(phenylamino)pyrimidine-5-carboxamide], for which the IC50 is 200 to 800 nM.

Still in this experiment, the particulars now being: Table 3; JNK1 IC50 activity level; read-out: Act. Level.
On to `CO[C@H]1CC[C@H](Nc2ncc(C#N)c(NC(C)C)n2)CC1` [Example C-17, 4-(isopropylamino)-2-((1r,4r)-4-methoxycyclohexylamino) pyrimidine-5-carbonitrile], for which the IC50 is 800 to 1000 nM.

For `[2H]C([2H])([2H])O[C@H]1CC[C@H](Nc2ncc(C#N)c(N[C@@H]3CCC[C@](C)(O)C3)n2)CC1` [Example C-56, 4-((1R,3S)-3-hydroxy-3-methylcyclohexylamino)-2-((1r,4R)-4-((^2H3)methyloxy)cyclohexyl-amino)pyrimidine-5-carbonitrile], the IC50 is under 200 nM.

For the compound `CCO[C@H]1CC[C@H](Nc2ncc(C#N)c(N[C@H]3CCC[C@@H](O)C3)n2)CC1` [Example C-1, 2-((1r,4S)-4-ethoxycyclohexylamino)-4-((1S,3R)-3-hydroxycyclohexylamino) pyrimidine-5-carbonitrile], the IC50 lay within 200 to 800 nM.

In the case of `C[C@]1(O)CCC[C@@H](Nc2nc(N[C@H]3CC[C@H](OCC(F)(F)F)CC3)ncc2C#N)C1` [Example C-40], the IC50 was under 200 nM.

Regarding `CCO[C@H]1CC[C@H](Nc2ncc(C#N)c(NC3CCOCC3)n2)CC1` [Example C-21, 2-((1r,4r)-4-ethoxycyclohexylamino)-4-(tetrahydro-2H-pyran-4-ylamino)pyrimidine-5-carbonitrile], the IC50 fell in the range of 1000 to 10000 nM.

On to `CCO[C@H]1CC[C@H](Nc2ncc(C#N)c(NC3CCCCC3)n2)CC1` [Example C-20, 4-(cyclohexylamino)-2-((1r,4r)-4-ethoxycyclohexylamino) pyrimidine-5-carbonitrile], for which the IC50 was 200 to 800 nM.

Staying with this experiment, now noted: one or more of the JNK1 biochemical assays; read-out: Act. Level (JNK1 IC50 activity level).
For the compound `CCO[C@H]1CC[C@H](Nc2ncc(C(N)=O)c(N[C@H](C)C(C)C)n2)CC1` [Example 290, 2-((1r,4R)-4-ethoxycyclohexylamino)-4-((R)-3-methylbutan-2-ylamino)pyrimidine-5-carboxamide], the IC50 was under 200 nM.

As for `CC(C)Nc1nc(N[C@H]2CCC[C@@H](O)CC2)ncc1C(N)=O` [Example 233, 2-((1S,4R)-4-hydroxycycloheptylamino)-4-(isopropylamino)pyrimidine-5-carboxamide], the IC50 was under 200 nM.

As to `C[C@@H](Nc1nc(N[C@H]2CC[C@H](OC(F)F)CC2)ncc1C(N)=O)C1CC1` [Example 426, 4-((R)-1-cyclopropylethylamino)-2-((1r,4R)-4-(difluoromethoxy)cyclohexylamino)pyrimidine-5-carboxamide], the IC50 was under 200 nM.

On to `CC(C)(C)Nc1nc(N[C@H]2CC[C@H](OCC(F)(F)F)CC2)ncc1C(N)=O` [Example 212, 4-(tert-butylamino)-2-((1r,4r)-4-(2,2,2-trifluoroethoxy)cyclohexylamino)pyrimidine-5-carboxamide], for which the IC50 was under 200 nM.

Regarding `CN[C@H]1CC[C@H](Nc2ncc(C(N)=O)c(NC(C)C)n2)CC1` [Example 214, 4-(isopropylamino)-2-((1r,4r)-4-(methylamino)cyclohexylamino)pyrimidine-5-carboxamide], the IC50 was under 200 nM.

For `CCNc1nc(N[C@H]2CC[C@H](O)CC2)ncc1C(N)=O` [Example 269, 4-(ethylamino)-2-((1r,4r)-4-hydroxycyclohexylamino)pyrimidine-5-carboxamide], the IC50 was under 200 nM.

Take `CC(C)(C)Nc1nc(NC2CCOCC2)ncc1C(N)=O` [Example 317, 4-(tert-butylamino)-2-(tetrahydro-2H-pyran-4-ylamino)pyrimidine-5-carboxamide]: the IC50 was under 200 nM.

Regarding `COC12CCC(Nc3ncc(C(N)=O)c(N[C@@H]4CCC[C@H](O)C4)n3)(CC1)CC2` [Example 231, 4-((1R,3S)-3-hydroxycyclohexylamino)-2-(4-methoxybicyclo[2.2.2]octan-1-ylamino)pyrimidine-5-carboxamide], the IC50 is under 200 nM.

Take `NC(=O)c1cnc(N[C@H]2CC[C@H](OC(F)F)CC2)nc1N[C@@H]1CCC[C@@H]1CO` [Example 268, 2-((1r,4R)-4-(difluoromethoxy)cyclohexylamino)-4-((1R,2S)-2-(hydroxymethyl)cyclopentylamino)pyrimidine-5-carboxamide]: the IC50 was under 200 nM.

With `CC[C@@H](C)Nc1ncc(C(N)=O)c(N[C@@H]2CCC[C@H](O)C2)n1` [Example 497, 2-(sec-butylamino)-4-((1R,3S)-3-hydroxycyclohexylamino)pyrimidine-5-carboxamide], the IC50 was under 200 nM.

In the case of `CC(C)(C)Nc1nc(NC23CCC(O)(CC2)C3)ncc1C(N)=O` [Example 399, 4-(tert-butylamino)-2-(4-hydroxybicyclo[2.2.1]heptan-1-ylamino)pyrimidine-5-carboxamide], the IC50 is under 200 nM.

For `CCC1(Nc2nc(N[C@H]3CC[C@H](O)CC3)ncc2C(N)=O)CC1` [Example 356, 4-(1-ethylcyclopropylamino)-2-((1r,4r)-4-hydroxycyclohexylamino)pyrimidine-5-carboxamide], the IC50 is under 200 nM.

For `NC(=O)c1cnc(N[C@H]2CC[C@H](OC3CC3)CC2)nc1NC1C2CC1C2` (stereo partly drawn) [Example 486, 4-(bicyclo[1.1.1]pentan-2-ylamino)-2-((1r,4r)-4-cyclopropoxycyclohexylamino)pyrimidine-5-carboxamide], the IC50 is under 200 nM.

Take `C[C@@H]1CC[C@@H](Nc2nc(NC3CC3)ncc2C(N)=O)C[C@H]1O` [Example 272, 2-(cyclopropylamino)-4-((1R,3R,4R)-3-hydroxy-4-methylcyclohexylamino)pyrimidine-5-carboxamide]: the IC50 was under 200 nM.

As for `NC(=O)c1cnc(N[C@H]2CC[C@H](OC3CC3)CC2)nc1NC1CCC1` [Example 434, 4-(cyclobutylamino)-2-((1r,4r)-4-cyclopropoxycyclohexylamino)pyrimidine-5-carboxamide], the IC50 is under 200 nM.

For the compound `CC1(Nc2ncc(C(N)=O)c(N[C@@H]3CCC[C@](C)(O)C3)n2)CCC1` [Example 353, 4-((1R,3S)-3-hydroxy-3-methylcyclohexylamino)-2-(1-methylcyclobutylamino)pyrimidine-5-carboxamide], the IC50 was under 200 nM.

Regarding `CC(C)(C)Nc1nc(NC2CCCC(O)CC2)ncc1C(N)=O` (stereo not drawn) [Example 250, 4-(tert-butylamino)-2-(4-hydroxycycloheptylamino)pyrimidine-5-carboxamide], the IC50 is under 200 nM.

For `CC(C)(Nc1nc(N[C@H]2CC[C@H](OC3CC3)CC2)ncc1C(N)=O)C1CC1` [Example 483, 2-((1r,4r)-4-cyclopropoxycyclohexylamino)-4-(2-cyclopropylpropan-2-ylamino)pyrimidine-5-carboxamide], the IC50 was under 200 nM.

Turning to `CCC(C)(CC)Nc1nc(N[C@H]2CC[C@H](O)CC2)ncc1C(N)=O` [Example 262, 2-((1r,4r)-4-hydroxycyclohexylamino)-4-(3-methylpentan-3-ylamino)pyrimidine-5-carboxamide], the IC50 is under 200 nM.

Turning to `CO[C@H]1CC[C@H](Nc2ncc(C(N)=O)c(N[C@H]3C[C@@H](C)C3)n2)CC1` [Example 337, 2-((1r,4r)-4-methoxycyclohexylamino)-4-((1s,3s)-3-methycyclobutylamino)pyrimidine-5-carboxamide], the IC50 was under 200 nM.

The experiment is the same for the next values; noted with them: tested in one or more of the JNK1 biochemical assays; read-out: Act. Level (JNK1 biochemical assay IC50 activity level).
Turning to `CC1(Nc2nc(N[C@H]3CC[C@H](O)CC3)ncc2C(N)=O)CCOCC1` [Example A-79, 2-((1r,4r)-4-hydroxycyclohexylamino)-4-(4-methyltetrahydro-2H-pyran-4-ylamino)pyrimidine-5-carboxamide], the IC50 is under 200 nM.

Take `CC(C)CC(=O)N1CCC(Nc2nc(N[C@@H]3CC[C@@H](O)C3)ncc2C(N)=O)CC1` [Example A-86, 2-((1R,3R)-3-hydroxycyclopentylamino)-4-(1-(3-methylbutanoyl)piperidin-4-ylamino)pyrimidine-5-carboxamide]: the IC50 is 200 to 800 nM.

As for `CO[C@H]1CC[C@H](Nc2ncc(C(N)=O)c(N[C@@H]3CC[C@H](O)C3)n2)CC1` [Example A-46, 4-((1R,3S)-3-hydroxycyclopentylamino)-2-((1r,4R)-4-methoxycyclohexylamino)pyrimidine-5-carboxamide], the IC50 was under 200 nM.

Turning to `CC(C)CC(=O)N1CCC(Nc2ncc(C(N)=O)c(N[C@H]3C[C@@H](O)C3)n2)CC1` [Example A-68, 4-((1s,3s)-3-hydroxycyclobutylamino)-2-(1-(3-methylbutanoyl)piperidin-4-ylamino)pyrimidine-5-carboxamide], the IC50 was under 200 nM.

`CCO[C@@H]1CC[C@@H](Nc2ncc(C(N)=O)c(N[C@H]3CCC[C@@H]3O)n2)C1` [Example A-76, 2-((1R,3R)-3-ethoxycyclopentylamino)-4-((1S,2S)-2-hydroxycyclopentylamino)pyrimidine-5-carboxamide]: the IC50 fell in the range of 200 to 800 nM.

Take `CC(=O)N1CCC(Nc2nc(N[C@@H](C)C3CCCCC3)ncc2C(N)=O)CC1` [Example A-127, (S)-4-(1-acetylpiperidin-4-ylamino)-2-(1-cyclohexylethylamino)pyrimidine-5-carboxamide]: the IC50 was under 200 nM.

`CO[C@H]1CC[C@H](Nc2ncc(C(N)=O)c(N[C@H]3CC[C@@H](C(=O)N(C)C)CC3)n2)CC1` [Example A-118, 4-((1s,4s)-4-(dimethylcarbamoyl)cyclohexylamino)-2-((1r,4r)-4-methoxycyclohexylamino)pyrimidine-5-carboxamide]: the IC50 is under 200 nM.
